Data published in patent US8415469B2, “Compounds and methods for kinase modulation, and indications therefor” (Plexxikon Inc., priority 2005, dated 2013).

What was measured:
Type in all cases: biochemical
[1] = biological target: T1, Btk (Homo sapiens, UniProt Q06187); test: Z'-Lyte FRET kinase assay (Invitrogen), Btk; conditions: read-out: IC50, activity toward kinase Btk
T1 construct: purchased Invitrogen (assay run by Invitrogen)

[2] = biological target: T2, FGFR1 (Homo sapiens, UniProt P11362, C488A/C584S); test: AlphaScreen kinase assay, FGFR1; conditions: read-out: IC50, activity toward kinase FGFR
T2 construct: P1351.pET N6 BI-PTP FGFR A458-E765-X C488A, C584S; made in house; host or cells: E. coli (PTP1B co-expressed)

[3] = biological target: T3, Src (Homo sapiens, UniProt P12931); test: AlphaScreen kinase assay, Src; conditions: read-out: IC50, activity toward kinase Src
T3 construct: P1144. pET-N6 BI-PTP SRC V86-L536-X; made in house

[4] = biological target: IGF1R (Homo sapiens, UniProt P08069); test: AlphaScreen kinase assay, IGF1R; conditions: read-out: IC50, activity toward kinase IGF1R
[5] = biological target: T4, B-Raf (Homo sapiens, UniProt P15056); test: AlphaScreen kinase assay, B-Raf; conditions: read-out: IC50, activity toward kinase B-Raf
T4 construct: purchased Upstate Biotechnology

[6] = biological target: T5, Kit (Homo sapiens, UniProt P10721); test: AlphaScreen kinase assay, Kit; conditions: read-out: IC50, activity toward kinase Kit
T5 construct: P1332.N6 BI PTP KIT M552-K948-X COD; His6 (N); made in house; host or cells: E. coli (PTP1B co-expressed)

[7] = biological target: T6, Fak (Homo sapiens, UniProt Q05397); test: AlphaScreen kinase assay, Fak; conditions: read-out: IC50, activity toward kinase Fak
T6 construct: P1358.pFastBacHtb FAK S411-Q686-X; His6 with pFastBacHTb leader (TEV site) (N); made in house; host or cells: Sf9 (baculovirus)
Excerpt: (§2) AlphaScreen assay was used to screen additional kinases. The assay is similarly dependent on the phosphorylation of a peptide substrate. In this assay, an antibody that recognizes phosphorylated substrate is bound to an acceptor bead. The peptide substrate is attached to biotin, which binds to a donor head that contains streptavidin. Thus phosphorylated substrate is bound by antibody and streptavidin, bringing the donor and acceptor heads into close proximity when kinase is not inhibited. The donor produces singlet oxygen which results in emission from the acceptor when they are in close proximity. Conversely, when kinase is inhibited, the donor and acceptor beads are not associated and the emission from the acceptor is reduced.
(§3) AlphaScreen assays were done using compounds dissolved in DMSO to a concentration of 20 mM. The compounds were diluted accordingly to the desired final concentrations in each sample well, using 1:3 serial dilution for a total of 8 concentration points. Plates were prepared such that each kinase reaction is 20 μl in 1× kinase buffer, 5% DMSO and 10 μM ATP. After incubation of the kinase reaction for 1 hour at room temperature, 5 μl of donor beads in stop buffer (50 mM EDTA in 1× kinase buffer) was added, the sample was mixed and incubated for 20 minutes at room temperature before adding 5 μl of acceptor beads in stop buffer. The samples were incubated for 60 minutes at room temperature and the signal per well was read on AlphaQuest reader.

[8] = biological target: T7, Fms (Homo sapiens, UniProt P07333); test: AlphaScreen kinase assay, Fms; conditions: read-out: IC50, activity toward kinase Fms
T7 construct: purchased Upstate Biotechnology

[9] = biological target: T8, c-Raf-1 (Homo sapiens, UniProt P04049); test: AlphaScreen kinase assay, c-Raf-1; conditions: read-out: IC50, activity toward kinase c-Raf-1
T8 construct: purchased Upstate Biotechnology

[10] = biological target: T9, Jnk1 (Homo sapiens, UniProt P45983); test: AlphaScreen kinase assay, Jnk1; conditions: read-out: IC50, activity toward kinase Jnk1
T9 construct: purchased Upstate Biotechnology

[11] = biological target: T10, B-Raf V600E (Homo sapiens, UniProt P15056, V600E); test: AlphaScreen kinase assay, B-Raf V600E; conditions: read-out: IC50, activity toward kinase B-Raf V600E
T10 construct: P4254. pFastBacBD-CDC37 BRAF D437-K722-X, V600E; His6 with pFastBac HT leader (TEV site) (N); made in house; host or cells: Sf9 (baculovirus; chaperone CDC37 co-expressed)

[12] = biological target: MAP4K4 (Homo sapiens, UniProt O95819); test: AlphaScreen kinase assay, MAP4K4; conditions: read-out: IC50, activity toward kinase MAP4K4
[13] = biological target: Gsk3β (Homo sapiens, UniProt P49841); test: AlphaScreen kinase assay, Gsk3β; conditions: read-out: IC50, activity toward kinase Gsk3β
In short: (§1)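 Emission from acceptor beads reports phosphorylated biotin-peptide bridging antibody-coated acceptor and streptavidin donor beads; loss of signal reflects kinase inhibition. Eight-point, threefold dilution series prepared from 20 mM DMSO stocks.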

[14] = biological target: T11, Pyk2 (Homo sapiens, UniProt Q14289); test: AlphaScreen kinase assay, Pyk2; conditions: read-out: IC50, activity toward kinase Pyk2
T11 construct: purchased Upstate Biotechnology

[15] = biological target: T12, Met (Homo sapiens, UniProt P08581); test: AlphaScreen kinase assay, Met; conditions: read-out: IC50, activity toward kinase Met
T12 construct: P1818.pETN6 BI-PTP MET G1056-G1364-X WT; His6 (N); made in house; host or cells: E. coli (PTP1B co-expressed)
In short: as §1

[16] = biological target: T13, Jnk2 (Homo sapiens, UniProt P45984); test: AlphaScreen kinase assay, Jnk2; conditions: read-out: IC50, activity toward kinase Jnk2
T13 construct: purchased Roche Protein Expression Group (Indianapolis, IN)
In short: as §1

[17] = biological target: T14, Ret (Homo sapiens, UniProt P07949); test: AlphaScreen kinase assay, Ret; conditions: read-out: IC50, activity toward kinase Ret
T14 construct: P1378.pET-SF BI-PTP RET H661-R1012 HIS; made in house
T14 sequence (P07949 with tags, fused parts or gaps): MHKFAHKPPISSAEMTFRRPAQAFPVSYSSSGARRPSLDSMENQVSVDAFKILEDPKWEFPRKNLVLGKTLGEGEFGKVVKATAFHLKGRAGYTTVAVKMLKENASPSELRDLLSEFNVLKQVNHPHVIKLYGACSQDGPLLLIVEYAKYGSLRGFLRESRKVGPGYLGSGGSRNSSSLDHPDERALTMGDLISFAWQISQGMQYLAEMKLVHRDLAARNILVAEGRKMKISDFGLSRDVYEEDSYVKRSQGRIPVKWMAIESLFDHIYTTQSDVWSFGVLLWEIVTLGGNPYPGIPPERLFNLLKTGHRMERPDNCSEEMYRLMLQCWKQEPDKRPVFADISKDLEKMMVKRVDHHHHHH

[18] = biological target: T15, Jnk3 (Homo sapiens, UniProt P53779); test: AlphaScreen kinase assay, Jnk3; conditions: read-out: IC50, activity toward kinase Jnk3
T15 construct: purchased Upstate Biotechnology

[19] = biological target: T16, MAP2K1 (Homo sapiens, UniProt Q02750); test: Z'-Lyte FRET kinase assay (Invitrogen), MAP2K1; conditions: read-out: IC50, activity toward kinase MAP2K1
T16 construct: purchased Invitrogen (assay run by Invitrogen)

[20] = biological target: T17, Stk6 (Homo sapiens, UniProt O14965); test: Z'-Lyte FRET kinase assay (Invitrogen), Stk6; conditions: read-out: IC50, activity toward kinase Stk6
T17 construct: purchased Invitrogen (Carlsbad, Calif.), screening service
T17 sequence (O14965 1-403): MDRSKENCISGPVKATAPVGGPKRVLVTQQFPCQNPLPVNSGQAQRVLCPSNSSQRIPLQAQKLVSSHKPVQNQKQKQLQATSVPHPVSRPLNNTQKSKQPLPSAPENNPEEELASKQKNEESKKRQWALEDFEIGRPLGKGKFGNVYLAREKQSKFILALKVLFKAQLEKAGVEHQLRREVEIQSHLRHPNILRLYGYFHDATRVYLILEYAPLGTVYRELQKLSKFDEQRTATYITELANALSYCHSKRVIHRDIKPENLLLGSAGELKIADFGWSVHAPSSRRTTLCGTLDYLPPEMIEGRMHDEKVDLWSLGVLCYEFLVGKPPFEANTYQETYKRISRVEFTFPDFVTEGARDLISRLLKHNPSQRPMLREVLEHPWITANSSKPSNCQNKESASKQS

[21] = biological target: T18, Kdr (Homo sapiens, UniProt P35968); test: Z'-Lyte FRET kinase assay (Invitrogen), Kdr; conditions: read-out: IC50, activity toward kinase Kdr
T18 construct: purchased Invitrogen (assay run by Invitrogen)

[22] = biological target: T19, IKK beta (Homo sapiens, UniProt O14920); test: AlphaScreen kinase assay, IKK beta; conditions: read-out: IC50, activity toward kinase IKK beta
T19 sequence (O14920 1-756): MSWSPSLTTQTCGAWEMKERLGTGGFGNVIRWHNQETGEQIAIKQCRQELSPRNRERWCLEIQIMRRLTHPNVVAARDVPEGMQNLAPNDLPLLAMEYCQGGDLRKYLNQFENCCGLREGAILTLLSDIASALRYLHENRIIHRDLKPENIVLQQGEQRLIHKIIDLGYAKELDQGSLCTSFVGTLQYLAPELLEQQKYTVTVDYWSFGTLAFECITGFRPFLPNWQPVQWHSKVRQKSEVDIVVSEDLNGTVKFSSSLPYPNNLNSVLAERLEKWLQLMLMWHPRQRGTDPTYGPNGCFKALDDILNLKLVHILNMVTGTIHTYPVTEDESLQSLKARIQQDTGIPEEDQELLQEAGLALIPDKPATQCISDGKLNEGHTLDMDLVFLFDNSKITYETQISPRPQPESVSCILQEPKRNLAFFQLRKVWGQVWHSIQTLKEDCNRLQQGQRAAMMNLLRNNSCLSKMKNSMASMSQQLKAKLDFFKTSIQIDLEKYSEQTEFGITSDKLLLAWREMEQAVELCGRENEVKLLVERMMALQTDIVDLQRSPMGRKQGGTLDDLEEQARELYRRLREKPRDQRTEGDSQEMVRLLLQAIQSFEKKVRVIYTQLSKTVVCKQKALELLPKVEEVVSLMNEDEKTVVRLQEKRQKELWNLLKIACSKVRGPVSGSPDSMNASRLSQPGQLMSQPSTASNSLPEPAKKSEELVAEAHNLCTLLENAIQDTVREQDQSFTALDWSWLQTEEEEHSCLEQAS
Excerpt: as §2, §3

[23] = biological target: T20, Flt1 (Homo sapiens, UniProt P17948); test: AlphaScreen kinase assay, Flt1; conditions: read-out: IC50, activity toward kinase Flt1
T20 construct: P1826.pETN6 BI-PTP FLT1 M799-D1165-X WT; His6 (N); made in house; host or cells: E. coli (PTP1B co-expressed)
T20 sequence (P17948 with tags, fused parts or gaps): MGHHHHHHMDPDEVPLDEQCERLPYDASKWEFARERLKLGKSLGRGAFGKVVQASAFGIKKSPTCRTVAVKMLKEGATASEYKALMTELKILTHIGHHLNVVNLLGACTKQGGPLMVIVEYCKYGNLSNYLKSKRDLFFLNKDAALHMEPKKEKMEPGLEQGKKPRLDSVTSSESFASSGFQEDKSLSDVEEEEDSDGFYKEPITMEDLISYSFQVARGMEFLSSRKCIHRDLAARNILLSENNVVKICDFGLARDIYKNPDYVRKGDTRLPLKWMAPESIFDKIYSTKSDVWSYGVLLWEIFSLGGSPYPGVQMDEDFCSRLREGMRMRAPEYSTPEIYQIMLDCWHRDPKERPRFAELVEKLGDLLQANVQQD

Measured: IC50

Gsk3β, sequence (P49841 whole entry): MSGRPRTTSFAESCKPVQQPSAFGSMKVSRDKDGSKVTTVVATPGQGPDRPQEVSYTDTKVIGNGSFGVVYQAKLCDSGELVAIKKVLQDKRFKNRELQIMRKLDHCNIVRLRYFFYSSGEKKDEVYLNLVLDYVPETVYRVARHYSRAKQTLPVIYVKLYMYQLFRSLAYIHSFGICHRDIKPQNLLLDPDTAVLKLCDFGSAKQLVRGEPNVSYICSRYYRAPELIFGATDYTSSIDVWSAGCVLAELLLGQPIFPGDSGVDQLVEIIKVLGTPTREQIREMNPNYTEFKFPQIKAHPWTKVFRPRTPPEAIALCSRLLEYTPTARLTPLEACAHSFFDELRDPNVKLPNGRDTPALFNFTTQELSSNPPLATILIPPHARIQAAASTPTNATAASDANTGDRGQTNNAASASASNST
T5 sequence (P10721 with tags, fused parts or gaps): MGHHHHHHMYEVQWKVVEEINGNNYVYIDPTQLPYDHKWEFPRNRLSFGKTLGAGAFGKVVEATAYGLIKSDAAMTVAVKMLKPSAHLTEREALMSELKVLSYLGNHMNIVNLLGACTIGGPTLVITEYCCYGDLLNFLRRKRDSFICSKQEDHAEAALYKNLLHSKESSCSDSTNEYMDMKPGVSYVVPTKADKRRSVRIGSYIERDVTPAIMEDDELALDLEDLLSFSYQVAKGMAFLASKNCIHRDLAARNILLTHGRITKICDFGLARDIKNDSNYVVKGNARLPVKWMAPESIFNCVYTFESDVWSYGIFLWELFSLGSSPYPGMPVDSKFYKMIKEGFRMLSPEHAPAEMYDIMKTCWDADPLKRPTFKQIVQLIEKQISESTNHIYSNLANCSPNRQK
MAP4K4, sequence (O95819 whole entry): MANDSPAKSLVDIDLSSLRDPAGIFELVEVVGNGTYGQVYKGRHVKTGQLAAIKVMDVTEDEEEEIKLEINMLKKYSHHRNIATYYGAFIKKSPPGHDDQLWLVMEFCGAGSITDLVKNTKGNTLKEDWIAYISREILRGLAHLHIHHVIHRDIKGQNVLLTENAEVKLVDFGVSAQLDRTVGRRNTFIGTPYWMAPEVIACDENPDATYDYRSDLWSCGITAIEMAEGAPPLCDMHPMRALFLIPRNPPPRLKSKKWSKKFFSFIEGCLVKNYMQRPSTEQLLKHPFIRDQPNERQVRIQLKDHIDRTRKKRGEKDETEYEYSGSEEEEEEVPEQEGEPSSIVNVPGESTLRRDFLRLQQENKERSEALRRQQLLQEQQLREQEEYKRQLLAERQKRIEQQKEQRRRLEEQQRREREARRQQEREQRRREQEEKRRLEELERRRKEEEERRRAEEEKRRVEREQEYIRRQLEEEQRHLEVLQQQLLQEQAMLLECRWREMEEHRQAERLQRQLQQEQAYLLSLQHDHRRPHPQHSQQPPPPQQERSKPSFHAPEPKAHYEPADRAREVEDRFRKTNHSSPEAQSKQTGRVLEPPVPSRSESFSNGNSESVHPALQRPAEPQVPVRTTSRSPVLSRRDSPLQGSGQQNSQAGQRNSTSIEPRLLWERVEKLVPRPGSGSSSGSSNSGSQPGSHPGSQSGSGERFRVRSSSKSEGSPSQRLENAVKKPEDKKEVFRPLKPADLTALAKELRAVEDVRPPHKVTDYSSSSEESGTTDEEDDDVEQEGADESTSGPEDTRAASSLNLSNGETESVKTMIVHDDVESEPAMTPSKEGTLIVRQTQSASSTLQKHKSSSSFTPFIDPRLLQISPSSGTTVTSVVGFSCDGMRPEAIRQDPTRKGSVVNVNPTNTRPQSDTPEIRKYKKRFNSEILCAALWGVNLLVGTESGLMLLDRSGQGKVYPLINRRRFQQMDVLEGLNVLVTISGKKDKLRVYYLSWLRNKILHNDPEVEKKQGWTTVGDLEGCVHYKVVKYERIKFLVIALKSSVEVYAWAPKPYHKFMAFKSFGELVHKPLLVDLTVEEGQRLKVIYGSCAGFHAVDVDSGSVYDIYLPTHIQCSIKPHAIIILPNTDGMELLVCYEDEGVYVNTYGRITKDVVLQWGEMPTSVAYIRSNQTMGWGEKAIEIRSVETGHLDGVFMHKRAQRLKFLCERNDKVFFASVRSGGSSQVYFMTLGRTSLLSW
IGF1R, sequence (P08069 31-1367): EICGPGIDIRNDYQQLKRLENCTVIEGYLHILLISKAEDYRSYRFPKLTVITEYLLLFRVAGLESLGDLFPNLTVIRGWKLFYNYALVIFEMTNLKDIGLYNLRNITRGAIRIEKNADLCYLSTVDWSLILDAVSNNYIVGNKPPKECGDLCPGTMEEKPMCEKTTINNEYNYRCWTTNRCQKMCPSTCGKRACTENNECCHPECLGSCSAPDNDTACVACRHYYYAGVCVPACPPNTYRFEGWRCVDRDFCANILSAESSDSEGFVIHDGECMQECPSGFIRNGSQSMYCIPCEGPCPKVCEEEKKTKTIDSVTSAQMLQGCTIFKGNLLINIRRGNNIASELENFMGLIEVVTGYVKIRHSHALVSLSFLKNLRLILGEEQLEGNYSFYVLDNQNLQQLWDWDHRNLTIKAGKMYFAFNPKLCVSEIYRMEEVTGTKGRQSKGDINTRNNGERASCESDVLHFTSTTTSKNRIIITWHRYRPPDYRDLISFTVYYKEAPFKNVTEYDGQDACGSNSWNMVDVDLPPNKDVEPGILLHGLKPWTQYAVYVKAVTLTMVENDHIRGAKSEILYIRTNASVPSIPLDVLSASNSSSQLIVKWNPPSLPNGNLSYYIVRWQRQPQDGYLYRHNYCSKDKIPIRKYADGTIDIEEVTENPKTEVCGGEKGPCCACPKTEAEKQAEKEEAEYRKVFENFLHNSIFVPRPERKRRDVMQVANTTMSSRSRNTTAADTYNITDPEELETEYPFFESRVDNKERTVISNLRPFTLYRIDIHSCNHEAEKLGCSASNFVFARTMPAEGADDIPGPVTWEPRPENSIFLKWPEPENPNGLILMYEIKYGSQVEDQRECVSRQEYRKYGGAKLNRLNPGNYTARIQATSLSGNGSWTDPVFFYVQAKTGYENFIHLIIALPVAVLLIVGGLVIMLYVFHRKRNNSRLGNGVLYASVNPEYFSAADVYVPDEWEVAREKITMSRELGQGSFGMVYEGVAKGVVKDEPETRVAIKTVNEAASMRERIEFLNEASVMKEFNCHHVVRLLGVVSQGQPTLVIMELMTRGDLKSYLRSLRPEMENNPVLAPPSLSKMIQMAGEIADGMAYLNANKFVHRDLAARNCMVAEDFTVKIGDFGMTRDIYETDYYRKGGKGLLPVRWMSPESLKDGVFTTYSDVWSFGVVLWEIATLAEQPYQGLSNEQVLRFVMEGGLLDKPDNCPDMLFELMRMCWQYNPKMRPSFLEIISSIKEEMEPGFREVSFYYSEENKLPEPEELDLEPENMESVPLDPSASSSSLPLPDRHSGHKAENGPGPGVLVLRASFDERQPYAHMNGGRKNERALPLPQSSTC
T3 sequence (P12931 with tags, fused parts or gaps): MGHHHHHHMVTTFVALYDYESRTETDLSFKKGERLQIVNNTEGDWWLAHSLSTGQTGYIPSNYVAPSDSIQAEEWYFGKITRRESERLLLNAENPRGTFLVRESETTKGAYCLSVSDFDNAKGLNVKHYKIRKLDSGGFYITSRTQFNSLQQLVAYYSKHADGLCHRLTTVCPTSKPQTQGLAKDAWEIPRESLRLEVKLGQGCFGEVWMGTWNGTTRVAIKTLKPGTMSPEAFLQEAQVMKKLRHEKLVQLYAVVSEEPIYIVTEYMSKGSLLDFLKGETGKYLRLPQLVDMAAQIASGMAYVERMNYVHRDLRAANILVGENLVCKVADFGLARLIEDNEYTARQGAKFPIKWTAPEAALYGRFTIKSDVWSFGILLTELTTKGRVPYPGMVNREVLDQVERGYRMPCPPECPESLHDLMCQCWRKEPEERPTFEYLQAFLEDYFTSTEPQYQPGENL
T8 sequence (P04049 whole entry): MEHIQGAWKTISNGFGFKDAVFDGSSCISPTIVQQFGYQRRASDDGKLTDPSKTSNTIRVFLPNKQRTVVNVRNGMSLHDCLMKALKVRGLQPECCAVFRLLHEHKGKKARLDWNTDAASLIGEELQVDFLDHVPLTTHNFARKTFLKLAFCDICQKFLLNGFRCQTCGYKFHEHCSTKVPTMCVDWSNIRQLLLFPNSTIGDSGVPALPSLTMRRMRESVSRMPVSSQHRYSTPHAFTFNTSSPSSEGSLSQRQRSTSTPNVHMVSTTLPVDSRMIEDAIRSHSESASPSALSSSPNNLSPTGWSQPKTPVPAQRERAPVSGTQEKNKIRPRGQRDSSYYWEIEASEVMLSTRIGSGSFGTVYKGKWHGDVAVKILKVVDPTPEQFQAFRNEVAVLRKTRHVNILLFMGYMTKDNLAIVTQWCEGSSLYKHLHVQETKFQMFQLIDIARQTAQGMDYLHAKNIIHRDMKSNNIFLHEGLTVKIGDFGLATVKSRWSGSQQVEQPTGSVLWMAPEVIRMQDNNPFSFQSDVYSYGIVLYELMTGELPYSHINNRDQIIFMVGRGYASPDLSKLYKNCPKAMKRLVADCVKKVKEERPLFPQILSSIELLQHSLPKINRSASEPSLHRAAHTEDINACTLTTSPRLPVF
T9 sequence (P45983 whole entry): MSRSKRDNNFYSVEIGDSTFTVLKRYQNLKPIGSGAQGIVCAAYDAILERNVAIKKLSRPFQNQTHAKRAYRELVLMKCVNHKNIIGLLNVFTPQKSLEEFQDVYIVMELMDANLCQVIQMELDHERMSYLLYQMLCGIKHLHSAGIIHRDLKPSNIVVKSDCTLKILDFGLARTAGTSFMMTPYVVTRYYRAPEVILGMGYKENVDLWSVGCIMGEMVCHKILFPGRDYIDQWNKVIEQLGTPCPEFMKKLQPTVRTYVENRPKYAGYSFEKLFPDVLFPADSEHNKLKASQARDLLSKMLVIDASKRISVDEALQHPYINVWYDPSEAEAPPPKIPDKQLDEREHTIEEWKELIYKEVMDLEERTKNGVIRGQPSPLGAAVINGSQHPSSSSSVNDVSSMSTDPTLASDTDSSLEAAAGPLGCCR

COc1ccc(F)c(C(=O)c2c[nH]c3ncc(-c4cccc(NC(C)=O)c4)cc23)c1F [Compound P-1390, N-{3-[3-(2,6-Difluoro-3-methoxy-benzoyl)-1H-pyrrolo[2,3-b]pyridin-5-yl]-phenyl}-acetamide]
≤ 10 µM: [1] | [2] | [3] | [4] | [5] | [6] | [7] | [8] | [9] | [10] | [11]

CC(C)S(=O)(=O)Nc1ccc(F)c(C(=O)c2c[nH]c3ncc(-c4cccnc4)cc23)c1F [Compound P-0850, propane-2-sulfonic acid [2,4-difluoro-3-(5-pyridin-3-yl-1H-pyrrolo[2,3-b]pyridin-3-carbonyl)-phenyl]-amide]
not listed: [1] | [15] | [16] | [17] | [18] | [19] | [20] | [21] | [22] | [23]
≤ 10 µM: all other assays above

CS(=O)(=O)Nc1cccc(-c2cnc3[nH]cc(C(=O)c4c(F)ccc(NS(C)(=O)=O)c4F)c3c2)c1 [Compound P-0746, N-{2,4-Difluoro-3-[5-(3-methanesulfonylamino-phenyl)-1H-pyrrolo[2,3-b]pyridine-3-carbonyl]-phenyl}-methanesulfonamide]
≤ 10 µM: [15] | [16] | [17] | [2] | [4] | [5] | [9] | [11]

CS(=O)(=O)Nc1ccc(F)c(C(=O)c2c[nH]c3ncc(-c4cccnc4)cc23)c1 [Compound P-0079, N-[4-Fluoro-3-(5-pyridin-3-yl-1H-pyrrolo[2,3-b]pyridine-3-carbonyl)-phenyl]-methanesulfonamide]
not listed: [7] | [14] | [15] | [20] | [21] | [22] | [23]
≤ 10 µM: all other assays above

CC(=O)Nc1cccc(-c2cnc3[nH]ccc3c2)c1 [Compound P-0115]
≤ 10 µM: [20] | [21] | [17] | [18] | [4] | [6] | [22]

CS(=O)(=O)Nc1ccc(F)c(C(=O)c2c[nH]c3ncc(-c4cccnc4)cc23)c1F [Compound P-0700, N-[2,4-Difluoro-3-(5-pyridin-3-yl-1H-pyrrolo[2,3-b]pyridine-3-carbonyl)-phenyl]-methanesulfonamide]
not listed: [1] | [8] | [18] | [19] | [20] | [21] | [22]
≤ 10 µM: all other assays above
